Experimental data as given in US11795171B2, “Pyrrolotriazinones and imidazotriazinones as ubiquitin-specific protease 7 inhibitors” (Valo Health, Inc., priority 2014, dated 2023).

molecular target: USP7 (Homo sapiens (Human), UniProt Q93009); assay: USP7 Assay B (Ubitquin-Rhodamine110 Assay); type: biochemical; conditions: Ub-Rh110 substrate 25 nM
Method: Stock compound solutions were stored at −20° C. as 10 mM in DMSO. […] Prestamped assay plates were allowed to come to room temperature on the day of the assay. For the screen, 100 nL of 2 mM was pre-dispensed for a final screening concentration of 10 μM (DMSO(fc)=0.5%). […] Unless otherwise indicated, all follow-up assays were run on triplecate plates. […] Pre-stamped with compounds were either not preincubated or preincubated with USP7 between 30 to 120 minutes prior to the addition of 10 μL of 2×Ub-Rh110 to compound plates. Plates were incubated stacked for either 23 or 45 minutes at room temperature before fluorescence was read on the Envision (Excitation at 485 nm and Emission at 535 nm; Perkin Elmer) or on the PheraSTAR (Excitation at 485 nm and Emission at 535 nm; BMG Labtech).
Data from USP7 Assays A and B were reported as percent inhibition (inh) compared with control wells based on the following equation: % inh=1−((FLU−AveLow)/(AveHigh−AveLow)) where FLU=measured Fluorescence (See Tables 2 and 3). AveLow=average Fluorescence of no enzyme control (n=16). AveHigh=average Fluorescence of DMSO control (n=16). IC50 values were determined by curve fitting of the standard 4 parameter logistic fitting algorithm included in the Activity Base software package: IDBS XE Designer Model205. Data is fitted using the Levenburg Marquardt algorithm.

Chain of USP7 (Q93009 208-1102): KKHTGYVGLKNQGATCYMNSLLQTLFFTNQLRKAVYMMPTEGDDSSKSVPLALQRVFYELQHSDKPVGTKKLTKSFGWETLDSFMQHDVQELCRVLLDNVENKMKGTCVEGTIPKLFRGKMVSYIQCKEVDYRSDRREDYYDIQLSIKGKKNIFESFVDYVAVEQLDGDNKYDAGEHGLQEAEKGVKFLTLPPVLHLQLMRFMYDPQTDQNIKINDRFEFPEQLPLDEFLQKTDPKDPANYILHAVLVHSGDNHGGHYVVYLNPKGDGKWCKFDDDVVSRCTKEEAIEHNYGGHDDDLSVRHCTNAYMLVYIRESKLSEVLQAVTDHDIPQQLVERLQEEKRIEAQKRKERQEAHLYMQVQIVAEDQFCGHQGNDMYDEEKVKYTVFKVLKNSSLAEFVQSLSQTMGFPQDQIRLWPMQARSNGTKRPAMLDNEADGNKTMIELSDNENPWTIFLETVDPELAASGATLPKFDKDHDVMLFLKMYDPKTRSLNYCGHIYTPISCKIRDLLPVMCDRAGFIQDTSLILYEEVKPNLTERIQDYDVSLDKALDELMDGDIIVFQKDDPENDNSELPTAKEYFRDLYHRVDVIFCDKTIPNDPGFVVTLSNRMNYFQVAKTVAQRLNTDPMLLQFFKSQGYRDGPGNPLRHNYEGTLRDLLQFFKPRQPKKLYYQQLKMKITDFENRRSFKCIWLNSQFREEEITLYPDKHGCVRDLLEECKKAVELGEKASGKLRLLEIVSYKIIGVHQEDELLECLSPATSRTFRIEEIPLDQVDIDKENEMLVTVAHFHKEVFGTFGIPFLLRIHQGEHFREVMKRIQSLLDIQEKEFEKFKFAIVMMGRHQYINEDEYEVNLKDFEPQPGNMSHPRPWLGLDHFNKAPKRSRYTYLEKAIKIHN

SMILES | IC50
CCOc1cccc(-c2ccc(C(=O)N3CCC(O)(Cn4cnn5cccc5c4=O)CC3)cc2)c1 [Compound I-37, 3-((1-(3′-ethoxy-[1,1′-biphenyl]-4-carbonyl)-4-hydroxypiperidin-4-yl)methyl)pyrrolo[2,1-f][1,2,4]triazin-4(3H)-one] | > 10 µM
CN(C)C(=O)c1ccc(-c2ccc(C(=O)N3CCC(O)(Cn4cnn5cccc5c4=O)CC3)cc2)cc1 [Compound I-38, 4′-(4-hydroxy-4-((4-oxopyrrolo[2,1-f][1,2,4]triazin-3(4H)-yl)methyl)piperidine-1-carbonyl)-N,N-dimethyl-[1,1′-biphenyl]-4-carboxamide] | 1 to 10 µM
O=C(c1ccc(-c2ccc(C(=O)N3CCC(O)(Cn4cnn5cccc5c4=O)CC3)cc2)cc1)N1CCCC1 [Compound I-39, 3-((4-hydroxy-1-(4′-(pyrrolidine-1-carbonyl)-[1,1′-biphenyl]-4-carbonyl)piperidin-4-yl)methyl)pyrrolo[2,1-f][1,2,4]triazin-4(3H)-one] | 1 to 10 µM
COc1ccc(OC)c(-c2ccc(C(=O)N3CCC(O)(Cn4cnn5cccc5c4=O)CC3)cc2)c1 [Compound I-40, 3-((1-(2′,5′-dimethoxy-[1,1′-biphenyl]-4-carbonyl)-4-hydroxypiperidin-4-yl)methyl)pyrrolo[2,1-f][1,2,4]triazin-4(3H)-one] | > 10 µM
CCNC(=O)c1ccc(-c2ccc(C(=O)N3CCC(O)(Cn4cnn5cccc5c4=O)CC3)cc2)cc1 [Compound I-41, N-ethyl-4′-(4-hydroxy-4-((4-oxopyrrolo[2,1-f][1,2,4]triazin-3(4H)-yl)methyl)piperidine-1-carbonyl)-[1,1′-biphenyl]-4-carboxamide] | > 10 µM
O=C(c1ccc(-c2cnc3ccccc3c2)cc1)N1CCC(O)(Cn2cnn3cccc3c2=O)CC1 [Compound I-42, 3-((4-hydroxy-1-(4-(quinolin-3-yl)benzoyl)piperidin-4-yl)methyl)pyrrolo[2,1-f][1,2,4]triazin-4(3H)-one] | 1 to 10 µM
O=C(c1ccc(-c2ccc3ncccc3c2)cc1)N1CCC(O)(Cn2cnn3cccc3c2=O)CC1 [Compound I-43, 3-((4-hydroxy-1-(4-(quinolin-6-yl)benzoyl)piperidin-4-yl)methyl)pyrrolo[2,1-f][1,2,4]triazin-4(3H)-one] | 1 to 10 µM
COc1cc(OC)cc(-c2ccc(C(=O)N3CCC(O)(Cn4cnn5cccc5c4=O)CC3)cc2)c1 [Compound I-44, 3-((1-(3′,5′-dimethoxy-[1,1′-biphenyl]-4-carbonyl)-4-hydroxypiperidin-4-yl)methyl)pyrrolo[2,1-f][1,2,4]triazin-4(3H)-one] | > 10 µM
Cc1ccc2cc(-c3ccc(C(=O)N4CCC(O)(Cn5cnn6cccc6c5=O)CC4)cc3)ccc2n1 [Compound I-45, 3-((4-hydroxy-1-(4-(2-methylquinolin-6-yl)benzoyl)piperidin-4-yl)methyl)pyrrolo[2,1-f][1,2,4]triazin-4(3H)-one] | 1 to 10 µM
Cn1cnc2cc(-c3ccc(C(=O)N4CCC(O)(Cn5cnn6cccc6c5=O)CC4)cc3)ccc21 [Compound I-46, 3-((4-hydroxy-1-(4-(1-methyl-1H-benzo[d]imidazol-5-yl)benzoyl)piperidin-4-yl)methyl)pyrrolo[2,1-f][1,2,4]triazin-4(3H)-one] | > 10 µM
O=C(c1ccc(-c2ccc3ocnc3c2)cc1)N1CCC(O)(Cn2cnn3cccc3c2=O)CC1 [Compound I-47, 3-((1-(4-(benzo[d]oxazol-5-yl)benzoyl)-4-hydroxypiperidin-4-yl)methyl)pyrrolo[2,1-f][1,2,4]triazin-4(3H)-one] | > 10 µM
O=C(c1ccc(-c2ccc3ncnn3c2)cc1)N1CCC(O)(Cn2cnn3cccc3c2=O)CC1 [Compound I-48, 3-((1-(4-([1,2,4]triazolo[1,5-a]pyridin-6-yl)benzoyl)-4-hydroxypiperidin-4-yl)methyl)pyrrolo[2,1-f][1,2,4]triazin-4(3H)-one] | > 10 µM
CC(CC(=O)N1CCC(O)(Cn2cnn3cc(Cl)cc3c2=O)CC1)c1ccccc1 (stereo not drawn) [Compound I-49, 6-chloro-3-((4-hydroxy-1-(3-phenylbutanoyl)piperidin-4-yl)methyl)pyrrolo[2,1-f][1,2,4]triazin-4(3H)-one] | 1 to 10 µM
O=C(c1ccc(-c2ccccc2)cc1Cl)N1CCC(O)(Cn2cnn3cccc3c2=O)CC1 [Compound I-50, 3-((1-(3-chloro-[1,1′-biphenyl]-4-carbonyl)-4-hydroxypiperidin-4-yl)methyl)pyrrolo[2,1-f][1,2,4]triazin-4(3H)-one] | > 10 µM
O=C(c1ccc(-c2ccc(C(=O)N3CCC(O)(Cn4cnn5cccc5c4=O)CC3)c(Cl)c2)cc1)N1CCCC1 [Compound I-51, 3-((1-(3-chloro-4′-(pyrrolidine-1-carbonyl)-[1,1′-biphenyl]-4-carbonyl)-4-hydroxypiperidin-4-yl)methyl)pyrrolo[2,1-f][1,2,4]triazin-4(3H)-one] | 1 to 10 µM
O=C(c1ccc(-c2ccc(C(=O)N3CCC(O)(Cn4cnn5cccc5c4=O)CC3)cc2)cc1)N1CCCCC1 [Compound I-52, 3-((4-hydroxy-1-(4′-(piperidine-1-carbonyl)-[1,1′-biphenyl]-4-carbonyl)piperidin-4-yl)methyl)pyrrolo[2,1-f][1,2,4]triazin-4(3H)-one] | > 10 µM
CC(C)(C)C(Cc1ccccc1)C(=O)N1CCC(O)(Cn2cnn3cccc3c2=O)CC1 (stereo not drawn) [Compound I-53, 3-((1-(2-benzyl-3,3-dimethylbutanoyl)-4-hydroxypiperidin-4-yl)methyl)pyrrolo[2,1-f][1,2,4]triazin-4(3H)-one] | 1 to 10 µM
N#CC(Cc1ccccc1)C(=O)N1CCC(O)(Cn2cnn3cccc3c2=O)CC1 (stereo not drawn) [Compound I-54, 2-benzyl-3-(4-hydroxy-4-((4-oxopyrrolo[2,1-f][1,2,4]triazin-3(4H)-yl)methyl)piperidin-1-yl)-3-oxopropanenitrile] | > 10 µM
CC(C)(c1ccccc1)c1ccc(C(=O)N2CCC(O)(Cn3cnn4cccc4c3=O)CC2)cc1 [Compound I-55, 3-((4-hydroxy-1-(4-(2-phenylpropan-2-yl)benzoyl)piperidin-4-yl)methyl)pyrrolo[2,1-f][1,2,4]triazin-4(3H)-one] | 1 to 10 µM
C[C@H](CC(=O)N1CCC(O)(Cn2cnn3cccc3c2=O)CC1)c1ccccc1 [Compound I-56, (R)-3-((4-hydroxy-1-(3-phenylbutanoyl)piperidin-4-yl)methyl)pyrrolo[2,1-f][1,2,4]triazin-4(3H)-one] | < 0.2 µM
CC(CC(=O)N1CCC(O)(Cn2cnn3cccc3c2=O)CC1)n1cccc1 (stereo not drawn) [Compound I-57, 3-((1-(3-(1H-pyrrol-1-yl)butanoyl)-4-hydroxypiperidin-4-yl)methyl)pyrrolo[2,1-f][1,2,4]triazin-4(3H)-one] | < 0.2 µM
O=C(CC1CCc2ccccc2C1)N1CCC(O)(Cn2cnn3cccc3c2=O)CC1 (stereo not drawn) [Compound I-58, 3-((4-hydroxy-1-(2-(1,2,3,4-tetrahydronaphthalen-2-yl)acetyl)piperidin-4-yl)methyl)pyrrolo[2,1-f][1,2,4]triazin-4(3H)-one] | > 10 µM
O=C(c1ccc(-c2cscn2)cc1)N1CCC(O)(Cn2cnn3cccc3c2=O)CC1 [Compound I-59, 3-((4-hydroxy-1-(4-(thiazol-4-yl)benzoyl)piperidin-4-yl)methyl)pyrrolo[2,1-f][1,2,4]triazin-4(3H)-one] | > 10 µM
CCC(Cc1ccccc1)C(=O)N1CCC(O)(Cn2cnn3cccc3c2=O)CC1 (stereo not drawn) [Compound I-60, 3-((1-(2-benzylbutanoyl)-4-hydroxypiperidin-4-yl)methyl)pyrrolo[2,1-f][1,2,4]triazin-4(3H)-one] | 1 to 10 µM
O=C(c1ccc(S(=O)(=O)c2ccccc2)cc1)N1CCC(O)(Cn2cnn3cccc3c2=O)CC1 [Compound I-61, 3-((4-hydroxy-1-(4-(phenylsulfonyl)benzoyl)piperidin-4-yl)methyl)pyrrolo[2,1-f][1,2,4]triazin-4(3H)-one] | 1 to 10 µM
O=C(c1ccc(Sc2ccccc2)cc1)N1CCC(O)(Cn2cnn3cccc3c2=O)CC1 [Compound I-62, 3-((4-hydroxy-1-(4-(phenylthio)benzoyl)piperidin-4-yl)methyl)pyrrolo[2,1-f][1,2,4]triazin-4(3H)-one] | 1 to 10 µM
O=C(c1ccc(Cn2cnc3ccccc32)cc1)N1CCC(O)(Cn2cnn3cccc3c2=O)CC1 [Compound I-64, 3-((1-(4-((1H-benzo[d]imidazol-1-yl)methyl)benzoyl)-4-hydroxypiperidin-4-yl)methyl)pyrrolo[2,1-f][1,2,4]triazin-4(3H)-one] | 1 to 10 µM
O=C(c1ccc(Cn2cccn2)cc1)N1CCC(O)(Cn2cnn3cccc3c2=O)CC1 [Compound I-65, 3-((1-(4-((1H-pyrazol-1-yl)methyl)benzoyl)-4-hydroxypiperidin-4-yl)methyl)pyrrolo[2,1-f][1,2,4]triazin-4(3H)-one] | 1 to 10 µM
Cc1nnnn1Cc1ccc(C(=O)N2CCC(O)(Cn3cnn4cccc4c3=O)CC2)cc1 [Compound I-66, 3-((4-hydroxy-1-(4-((5-methyl-1H-tetrazol-1-yl)methyl)benzoyl)piperidin-4-yl)methyl)pyrrolo[2,1-f][1,2,4]triazin-4(3H)-one] | > 10 µM
Cc1cc(C(F)(F)F)nn1Cc1ccc(C(=O)N2CCC(O)(Cn3cnn4cccc4c3=O)CC2)cc1 [Compound I-67, 3-((4-hydroxy-1-(4-((5-methyl-3-(trifluoromethyl)-1H-pyrazol-1-yl)methyl)benzoyl)piperidin-4-yl)methyl)pyrrolo[2,1-f][1,2,4]triazin-4(3H)-one] | 1 to 10 µM
